We go through 18 molecules from paper PMC4441536 (Journal of Medicinal Chemistry, 2015).

Converted amounts (≈) assume the structure as drawn. “And” between values parts separate entries of the source, which are not always exact repeats. Equal values may be shown once. Read-outs that look alike come from different tables or passages of the source.

The target in series [1] is CB1 (h) (Homo sapiens, UniProt P21554).
The target of series [2] is M3 (h) (Homo sapiens, UniProt P20309).
For series [3], the target named is 5-HT1A (h) (Homo sapiens, UniProt P08908).
For series [4] the following is noted: mouse, in vivo; for AUC / Cmax / Terminal Half-Life: 5 mg/kg.
Series [5] is described as follows: in vivo. The note with it: mouse, 5 mg/kg; for half-life: Terminal Half-Life.
Series [6] in a line: physchem. To be noted: D2O.
The nature of series [7]: physchem.
Series [8] deals with A3 (h) (Homo sapiens, UniProt P0DMS8).
Series [9] concerns the target 5-HT3 (h) (Homo sapiens, UniProt P46098).
Series [10] has as its target B2 (h) (Homo sapiens, UniProt P30411).
For series [11], the target named is NK3 (h) (Homo sapiens, UniProt P29371).
Series [12] addresses D1 (h) (Homo sapiens, UniProt P21728).
For series [13], the target named is NK2 (h) (Homo sapiens, UniProt P21452).
Series [14] concerns the target beta 1 (h) (Homo sapiens, UniProt P08588).
Series [15] addresses H2 (h) (Homo sapiens, UniProt P25021).
Series [16] addresses 5-HT2A (h) (Homo sapiens, UniProt P28223).
The target of series [17] is MT1 (ML1A) (h) (Homo sapiens, UniProt P48039).
The target of series [18] is M2 (h) (Homo sapiens, UniProt P08172).
Series [19] deals with AT1 (h) (Homo sapiens, UniProt P30556).
Series [20] has as its target 5-HT1B (Rattus norvegicus, UniProt P28564).
For series [21], the target named is 5-HT5a (h) (Homo sapiens, UniProt P47898).
The target in series [22] is 5-HT6 (h) (Homo sapiens, UniProt P50406).
For series [23], the target named is 5-HT7 (h) (Homo sapiens, UniProt P34969).
Series [24] has as its target D2S (h) (Homo sapiens, UniProt P14416).
Setting [25] is: iv, IV 5 mg/kg, individual animals 2, 3, 4.
Setting [26] is: po, PO 5 mg/kg, individual animals 6, 7, 8.

Chain of 5-HT1B (P28564 whole entry): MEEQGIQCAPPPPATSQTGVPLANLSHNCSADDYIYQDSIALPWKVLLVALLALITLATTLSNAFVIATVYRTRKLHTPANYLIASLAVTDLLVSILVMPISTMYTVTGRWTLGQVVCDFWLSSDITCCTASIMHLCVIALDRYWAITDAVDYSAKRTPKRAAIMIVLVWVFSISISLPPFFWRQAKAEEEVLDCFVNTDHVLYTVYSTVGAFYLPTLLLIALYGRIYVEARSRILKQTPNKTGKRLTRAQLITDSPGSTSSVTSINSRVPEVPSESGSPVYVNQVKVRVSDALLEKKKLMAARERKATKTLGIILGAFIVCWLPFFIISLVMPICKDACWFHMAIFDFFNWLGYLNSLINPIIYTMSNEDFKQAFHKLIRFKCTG
Chain of M2 (h) (P08172 whole entry): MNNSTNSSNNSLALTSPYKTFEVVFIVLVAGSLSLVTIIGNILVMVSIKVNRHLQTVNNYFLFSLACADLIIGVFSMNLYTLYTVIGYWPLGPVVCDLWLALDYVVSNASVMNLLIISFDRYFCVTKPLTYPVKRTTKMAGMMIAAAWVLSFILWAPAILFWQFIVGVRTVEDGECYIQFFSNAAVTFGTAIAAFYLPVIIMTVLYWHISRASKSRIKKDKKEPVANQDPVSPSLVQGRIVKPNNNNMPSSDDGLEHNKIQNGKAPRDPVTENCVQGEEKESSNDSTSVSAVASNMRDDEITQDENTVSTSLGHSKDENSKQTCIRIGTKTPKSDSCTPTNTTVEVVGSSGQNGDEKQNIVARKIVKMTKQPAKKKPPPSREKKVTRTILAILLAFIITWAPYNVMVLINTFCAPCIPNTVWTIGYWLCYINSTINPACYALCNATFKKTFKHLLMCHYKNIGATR
Chain of D1 (h) (P21728 whole entry): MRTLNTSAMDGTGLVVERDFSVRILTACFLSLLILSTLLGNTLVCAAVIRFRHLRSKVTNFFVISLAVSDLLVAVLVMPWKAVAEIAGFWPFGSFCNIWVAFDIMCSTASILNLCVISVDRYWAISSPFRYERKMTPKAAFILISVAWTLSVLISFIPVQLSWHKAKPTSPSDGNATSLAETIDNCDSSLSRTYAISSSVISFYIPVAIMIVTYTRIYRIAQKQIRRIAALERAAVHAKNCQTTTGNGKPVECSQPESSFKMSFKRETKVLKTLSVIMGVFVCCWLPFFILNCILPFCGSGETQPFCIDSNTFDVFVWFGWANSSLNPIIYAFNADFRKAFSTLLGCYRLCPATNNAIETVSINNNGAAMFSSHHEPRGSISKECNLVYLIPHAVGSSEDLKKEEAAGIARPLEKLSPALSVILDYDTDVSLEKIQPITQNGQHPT
Chain of M3 (h) (P20309 whole entry): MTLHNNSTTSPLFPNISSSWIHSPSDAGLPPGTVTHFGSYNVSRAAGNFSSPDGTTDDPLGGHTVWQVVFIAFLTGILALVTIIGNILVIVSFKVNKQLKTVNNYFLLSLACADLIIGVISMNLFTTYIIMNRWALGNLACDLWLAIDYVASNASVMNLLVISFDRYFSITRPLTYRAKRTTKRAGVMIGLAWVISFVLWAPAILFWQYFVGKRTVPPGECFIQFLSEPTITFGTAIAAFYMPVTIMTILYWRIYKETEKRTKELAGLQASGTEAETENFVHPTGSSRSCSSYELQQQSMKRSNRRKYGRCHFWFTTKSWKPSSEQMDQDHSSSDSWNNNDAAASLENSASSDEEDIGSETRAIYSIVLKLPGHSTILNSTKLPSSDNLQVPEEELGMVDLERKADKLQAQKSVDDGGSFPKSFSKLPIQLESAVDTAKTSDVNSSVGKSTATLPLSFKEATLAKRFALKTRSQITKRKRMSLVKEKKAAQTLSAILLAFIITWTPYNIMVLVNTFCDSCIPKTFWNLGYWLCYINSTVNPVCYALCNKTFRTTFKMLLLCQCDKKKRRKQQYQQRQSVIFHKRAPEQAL
Chain of D2S (h) (P14416 1-414 isoform P14416-2): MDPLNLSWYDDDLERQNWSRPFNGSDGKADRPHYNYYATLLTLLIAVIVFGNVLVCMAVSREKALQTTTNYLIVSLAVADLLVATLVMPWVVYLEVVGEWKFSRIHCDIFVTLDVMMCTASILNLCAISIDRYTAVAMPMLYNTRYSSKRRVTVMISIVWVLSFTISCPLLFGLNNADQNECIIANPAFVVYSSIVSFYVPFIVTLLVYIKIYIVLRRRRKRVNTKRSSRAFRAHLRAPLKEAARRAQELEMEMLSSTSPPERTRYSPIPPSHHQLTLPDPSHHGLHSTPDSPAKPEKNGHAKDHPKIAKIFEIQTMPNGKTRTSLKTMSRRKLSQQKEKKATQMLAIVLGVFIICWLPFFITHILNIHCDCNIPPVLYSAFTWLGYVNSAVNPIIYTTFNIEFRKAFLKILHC
Chain of NK3 (h) (P29371 whole entry): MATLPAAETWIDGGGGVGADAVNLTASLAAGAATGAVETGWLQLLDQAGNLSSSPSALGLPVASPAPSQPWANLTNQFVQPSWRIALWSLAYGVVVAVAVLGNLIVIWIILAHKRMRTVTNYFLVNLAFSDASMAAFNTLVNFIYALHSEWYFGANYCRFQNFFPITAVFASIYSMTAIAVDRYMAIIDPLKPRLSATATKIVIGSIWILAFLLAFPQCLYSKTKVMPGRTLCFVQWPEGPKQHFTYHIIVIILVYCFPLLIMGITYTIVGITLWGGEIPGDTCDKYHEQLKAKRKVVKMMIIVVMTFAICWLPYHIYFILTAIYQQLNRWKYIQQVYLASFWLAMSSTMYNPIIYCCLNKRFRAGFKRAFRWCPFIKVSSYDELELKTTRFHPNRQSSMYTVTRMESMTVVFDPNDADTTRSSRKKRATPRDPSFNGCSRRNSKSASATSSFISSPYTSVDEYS
Chain of 5-HT6 (h) (P50406 whole entry): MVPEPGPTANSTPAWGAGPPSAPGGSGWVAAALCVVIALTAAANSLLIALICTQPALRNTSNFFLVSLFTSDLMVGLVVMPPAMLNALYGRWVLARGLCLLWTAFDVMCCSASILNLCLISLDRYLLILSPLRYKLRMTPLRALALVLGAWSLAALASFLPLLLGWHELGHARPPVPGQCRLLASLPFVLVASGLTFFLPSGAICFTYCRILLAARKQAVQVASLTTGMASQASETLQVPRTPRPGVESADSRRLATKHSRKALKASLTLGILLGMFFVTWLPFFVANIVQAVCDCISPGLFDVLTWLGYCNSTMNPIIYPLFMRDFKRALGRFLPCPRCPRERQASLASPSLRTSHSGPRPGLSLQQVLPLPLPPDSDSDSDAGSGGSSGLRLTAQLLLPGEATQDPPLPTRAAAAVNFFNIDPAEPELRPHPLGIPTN
Chain of beta 1 (h) (P08588 whole entry): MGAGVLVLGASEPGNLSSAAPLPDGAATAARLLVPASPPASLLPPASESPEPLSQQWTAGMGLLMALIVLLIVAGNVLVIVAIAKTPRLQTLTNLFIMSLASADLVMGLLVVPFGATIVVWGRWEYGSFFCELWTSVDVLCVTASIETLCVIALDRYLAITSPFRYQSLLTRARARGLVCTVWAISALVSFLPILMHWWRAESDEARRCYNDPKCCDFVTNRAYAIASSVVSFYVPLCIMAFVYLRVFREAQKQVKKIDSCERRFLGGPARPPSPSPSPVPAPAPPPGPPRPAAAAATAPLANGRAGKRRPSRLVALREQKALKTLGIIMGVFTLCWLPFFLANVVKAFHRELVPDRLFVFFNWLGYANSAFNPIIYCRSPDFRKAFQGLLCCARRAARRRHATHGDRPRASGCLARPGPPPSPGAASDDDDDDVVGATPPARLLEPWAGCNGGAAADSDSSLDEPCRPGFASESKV
Chain of MT1 (ML1A) (h) (P48039 whole entry): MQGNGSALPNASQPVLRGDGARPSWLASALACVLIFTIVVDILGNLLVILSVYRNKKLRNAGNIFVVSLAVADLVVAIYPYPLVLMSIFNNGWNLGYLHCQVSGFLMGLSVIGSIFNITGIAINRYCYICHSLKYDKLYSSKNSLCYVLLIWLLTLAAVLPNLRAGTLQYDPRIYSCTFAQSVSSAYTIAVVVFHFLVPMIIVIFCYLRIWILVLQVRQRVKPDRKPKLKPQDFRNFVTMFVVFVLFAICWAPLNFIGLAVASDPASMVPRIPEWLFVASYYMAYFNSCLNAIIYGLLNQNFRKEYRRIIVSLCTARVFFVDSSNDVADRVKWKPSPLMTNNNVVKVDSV
Chain of 5-HT2A (h) (P28223 whole entry): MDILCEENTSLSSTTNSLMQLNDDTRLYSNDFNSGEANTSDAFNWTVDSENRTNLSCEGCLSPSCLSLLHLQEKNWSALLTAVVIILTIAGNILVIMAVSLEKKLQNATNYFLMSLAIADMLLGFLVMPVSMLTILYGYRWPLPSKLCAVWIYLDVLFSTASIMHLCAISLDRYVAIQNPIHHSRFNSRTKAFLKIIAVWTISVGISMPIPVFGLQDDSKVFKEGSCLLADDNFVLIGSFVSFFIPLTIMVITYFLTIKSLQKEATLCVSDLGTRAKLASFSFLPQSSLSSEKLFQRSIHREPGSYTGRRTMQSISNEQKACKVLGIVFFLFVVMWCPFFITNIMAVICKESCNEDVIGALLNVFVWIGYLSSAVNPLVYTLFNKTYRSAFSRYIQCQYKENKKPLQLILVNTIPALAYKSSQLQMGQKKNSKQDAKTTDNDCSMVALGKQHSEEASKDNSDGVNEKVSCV
Chain of 5-HT1A (h) (P08908 whole entry): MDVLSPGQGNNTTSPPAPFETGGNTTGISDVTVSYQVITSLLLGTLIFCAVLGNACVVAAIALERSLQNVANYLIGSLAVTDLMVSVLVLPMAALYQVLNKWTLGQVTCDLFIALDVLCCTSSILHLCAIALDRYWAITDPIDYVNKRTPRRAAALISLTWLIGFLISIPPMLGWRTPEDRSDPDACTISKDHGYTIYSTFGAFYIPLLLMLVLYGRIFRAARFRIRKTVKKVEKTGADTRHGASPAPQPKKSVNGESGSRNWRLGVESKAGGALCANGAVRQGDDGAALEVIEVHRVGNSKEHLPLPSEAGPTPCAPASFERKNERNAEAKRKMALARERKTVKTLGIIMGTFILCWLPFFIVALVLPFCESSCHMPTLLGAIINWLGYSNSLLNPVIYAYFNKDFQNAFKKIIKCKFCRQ

For the molecule `CCCCCCC(C)(C)c1ccc([C@@H]2C[C@H](O)CC[C@H]2CCCO)c(O)c1` [CP 55940], the “nH Ref” value in [1] is reported as 0.8. On to `C[N+]1(C)CCC(OC(=O)C(c2ccccc2)c2ccccc2)CC1.[I-]` [Compound 4-DAMP, 4-DAMP], for which the “nH Ref” value in [2] was found to be 1.3.

Take `CCCN(CCC)C1CCc2cccc(O)c2C1` (centres unmarked) [Compound 8-OH-DPAT, 8-OH-DPAT]: the “nH Ref” value in series [3] was determined as 1.2. The term AUC denotes concentration integrated over time. Low readings indicate low exposure, high ones high exposure. The Cmax is the maximum level reached in the sampled fluid or tissue. In general, half-life refers to how long it takes for the measured level to halve. High values mean slow loss, low ones fast loss. One may read the Tmax as the time from dosing to the highest level. The bioavailability is the share of a dose that reaches the circulation, judged against a reference dose that is usually intravenous. A high value points to good availability. For orientation: solubility means how much of the substance goes into solution per volume. Low values mean little dissolved substance, high ones much dissolved substance. Broadly, the logD is the decadic logarithm of the distribution of all forms, ionised or not, between an organic phase and buffer at a given pH. High values mean a more lipophilic compound, low ones a more hydrophilic compound. Turning to `Cn1cc(CCn2cnc(-c3cnn(C)c3)c2-c2ccc(C#N)cc2)cn1` [Compound 13, 4-(4-(1-methyl-1H-pyrazol-4-yl)-1-(2-(1-methyl-1H-pyrazol-4-yl)ethyl)-1H-imidazol-5-yl)benzonitrile], the volume of distribution entry in [4] is on record as “moderate”. In [4] (iv), the AUC was 5.875 µM·h and 7.614 µM·h; the Cmax was 10.4 µM and 13.8 µM; the “Terminal Half-Life” value was 59.8 min and 56.6 min. Moreover, in [4] (po), the AUC was 5.161 µM·h and 4.542 µM·h; the Cmax was 6.12 µM and 4.88 µM; the “Terminal Half-Life” value is 68.4 min and 49.3 min. In addition, in series [5] (setting [25]), the Cmax is 9.53 µM and the half-life is 50.9 min. For the same molecule, the Tmax in series [5] (iv, Tmax, IV 5 mg/kg, individual animals 2, 3, 4) worked out at 4.98 min. This molecule gave a bioavailability in [5] (po) of 70%. For the same molecule, in series [5] (setting [26]), the Cmax was found to be 6.46 µM and the half-life was 45.4 min. In addition, the solubility at 24 h in series [6] was 25 mM (≈ 8940 µg/mL). Also, the logD in series [7] amounted to 1.05. On to `CNC(=O)[C@H]1O[C@@H](n2cnc3c(NCc4cccc(I)c4)ncnc32)[C@H](O)[C@@H]1O` [IB-MECA], for which the “nH Ref” value in series [8] was determined as 0.7. On to `CN1[C@@H]2CC[C@H]1C[C@@H](OC(=O)c1cc(Cl)cc(Cl)c1)C2` [MDL 72222], for which, in series [9], the “nH Ref” value came out at 1.1.

Turning to `N=C(N)NCCC[C@@H](N)C(=O)N[C@@H](CCCNC(=N)N)C(=O)N1CCC[C@H]1C(=O)N1C[C@H](O)C[C@H]1C(=O)NCC(=O)N[C@@H](Cc1ccccc1)C(=O)N[C@@H](CO)C(=O)N[C@H](Cc1ccccc1)C(=O)N[C@@H](Cc1ccccc1)C(=O)N[C@@H](CCCNC(=N)N)C(=O)O` [NPC 567], the “nH Ref” value in series [10] is 0.8.

`CC[C@H](NC(=O)c1c(C)c(-c2ccccc2)nc2ccccc12)c1ccccc1` [SB 222200]: the “nH Ref” value in [11] was determined as 1.0. Regarding `CN1CCc2cc(Cl)c(O)cc2[C@@H](c2ccccc2)C1` [SCH 23390], in series [12], the “nH Ref” value is reported as 0.9. `CCCC[C@H](NC(=O)[C@H](CC(C)C)NC(=O)CNC(=O)[C@@H](NC(=O)[C@H](Cc1ccccc1)NC(=O)[C@H](CO)NC(=O)[C@@H](N)CC(=O)O)C(C)C)C(N)=O` [[Nleu10]-NKA (4-10)]: the “nH Ref” value in [13] is given as 0.9. Turning to `CC(C)NCC(O)COc1ccc(CC(N)=O)cc1` (centres unmarked) [atenolol], the “nH Ref” value in series [14] amounted to 0.9. With `CN/C(=N/CCSCc1nc[nH]c1C)NC#N` [cimetidine], in series [15], the “nH Ref” value was determined as 0.9. On to `O=C(c1ccc(F)cc1)C1CCN(CCn2c(=O)[nH]c3ccccc3c2=O)CC1` [ketanserin], for which the “nH Ref” value in series [16] came to 1.2.

As to `COc1ccc2[nH]cc(CCNC(C)=O)c2c1` [melatonin], the “nH Ref” value in series [17] was 1.3. Turning to `COc1ccccc1CNCCCCCCNCCCCCCCCNCCCCCCNCc1ccccc1OC` [methoctramine], the “nH Ref” value in series [18] was 0.8.

Take `CNCC(=O)N[C@@H](CCCN=C(N)N)C(=O)N[C@H](C(=O)N[C@@H](Cc1ccc(O)cc1)C(=O)N[C@H](C(=O)N[C@@H](Cc1cnc[nH]1)C(=O)N1CCC[C@H]1C(=O)N[C@@H](C)C(=O)O)C(C)C)C(C)C` [saralasin]: in [19], the “nH Ref” value worked out at 0.9.

For the molecule `NCCc1c[nH]c2ccc(O)cc12` [serotonin], the “nH Ref” value worked out at 1.2 in series [20], 0.7 in [21], 0.8 in [22] and 0.6 in [23]. For the molecule (+)butaclamol, in series [24], the “nH Ref” value stood at 1.3.
